For one test, the target named is T1, cathepsin K (Homo sapiens, UniProt P43235).
T1 sequence (P43235 115-329): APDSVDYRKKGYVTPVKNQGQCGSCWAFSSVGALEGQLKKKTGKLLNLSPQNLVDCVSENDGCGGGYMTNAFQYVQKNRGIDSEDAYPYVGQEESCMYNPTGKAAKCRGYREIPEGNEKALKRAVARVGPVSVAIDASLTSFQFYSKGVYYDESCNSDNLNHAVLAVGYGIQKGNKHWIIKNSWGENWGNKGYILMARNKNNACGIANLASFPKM
Kind of test: Determination of cathepsin K proteolytic catalytic activity / inhibition studies (progress curve method, Cbz-Phe-Arg-AMC). Format: biochemical. Conditions: human recombinant enzyme, 100 mM Na acetate pH 5.5, 20 μM substrate, 10% DMSO. The method, then: Determination of Cathepsin K Proteolytic Catalytic Activity
All assays for cathepsin K were carried out with human recombinant enzyme. Standard assay conditions for the determination of kinetic constants used a fluorogenic peptide substrate, typically Cbz-Phe-Arg-AMC, and were determined in 100 mM Na acetate at pH 5.5 containing 20 mM cysteine and 5 mM EDTA. Stock substrate solutions were prepared at concentrations of 10 or 20 mM in DMSO with 20 μM final substrate concentration in the assays. All assays contained 10% DMSO. […] All assays were conducted at ambient temperature. Product fluorescence (excitation at 360 nm; emission at 460 nm) was monitored with a Perceptive Biosystems Cytofluor II fluorescent plate reader. […]
Potential inhibitors were evaluated using the progress curve method. […] For those compounds whose progress curves were linear, apparent inhibition constants (Ki,app) were calculated according to equation 1 (Brandt et al., Biochemitsry, 1989, 28, 140): […]
[AMC]=vsst+(v0−vss)[[…]]/kobs (2) where [AMC] is the concentration of product formed over time t, v0 is the initial reaction velocity, and vss is the final steady state rate. Values for kobs were then analyzed as a linear function of inhibitor concentration to generate an apparent second order rate constant (kobs/inhibitor concentration or kobs/[I]) describing the time-dependent inhibition. […]

Test [1] relates to osteoclasts (osteoclastoma-derived cell suspensions). Briefly: Human osteoclast resorption assay (pit assay on dentine slices). Format: cell-based. Conditions: 48 hours, pit volumes. The method, then:
Human Osteoclast Resorption Assay
Aliquots of osteoclastoma-derived cell suspensions were removed from liquid nitrogen storage, warmed rapidly at 37° C. and washed ×1 in RPMI-1640 medium by centrifugation (1000 rpm, 5 min at 4° C.). The medium was aspirated and replaced with murine anti-HLA-DR antibody, diluted 1:3 in RPMI-1640 medium, and incubated for 30 minutes on ice. The cell suspension was mixed frequently.
The cells were washed ×2 with cold RPMI-1640 by centrifugation (1000 rpm, 5 min at 4° C.) and then transferred to a sterile 15 mL centrifuge tube. The number of mononuclear cells were enumerated in an improved Neubauer counting chamber.
Sufficient magnetic beads (5/mononuclear cell), coated with goat anti-mouse IgG, were removed from their stock bottle and placed into 5 mL of fresh medium (this washes away the toxic azide preservative). The medium was removed by immobilizing the beads on a magnet and is replaced with fresh medium.
The beads were mixed with the cells and the suspension was incubated for 30 minutes on ice. The suspension was mixed frequently. […]
The TRAP positive osteoclasts were enumerated by bright-field microscopy and were then removed from the surface of the dentine by sonication. Pit volumes were determined using the Nikon/Lasertec ILM21W confocal microscope.

One may read the Ki as a measure of affinity in units of concentration, obtained from inhibition or displacement. In general, IC50 refers to the concentration at which inhibition is half-maximal. A higher IC50 goes with lower potency.

Turning to `CC(C)C[C@H](NC(=O)c1ccc2ccccc2n1)C(=O)NC1CCCN(S(=O)(=O)c2cccc[n+]2[O-])CC1=O` (stereo partly drawn) [Example 1, Quinoline-2-carboxylic acid {(S)-3-methyl-1-[3-oxo-1-(1-oxy-pyridine-2-sulfonyl)-azepan-4-ylcarbamoyl]-butyl}amide], the Ki at cathepsin K turned out to be 0.41 nM. The molecule further returned a concentration for half-maximal inhibition (IC50) in test [1] of 300 nM.

(Values after patent publication US6534498B1, “Protease inhibitors” (SmithKline Beecham Corporation, priority 1999, dated 2003).)
